{"source": "paper PMC12257544", "about": "“Fluorescent Isostere (Fluostere) of the Carboxylate: Design of hDHODH Fluorescent Inhibitors as Proof of Concept” (Journal of Medicinal Chemistry, 2025)", "key": {"THP-1 cells": {"system": "THP-1 cells", "assay": "Co-localization competition assay with Bay2402234 (Manders coefficient)", "assay_type": "cell-based, human", "conditions": "10 μM each, 3 h, Manders coefficient, Welch's t test p = 0.0024", "method": "Colocalization between hDHODH inhibitors and mitochondria was quantified using Manders coefficient (Figure D).\nTHP-1 cells were incubated for 3 h with hDHODHi 11a and Bay240223410 at 10 μM, either alone or in combination. After incubation, the cells were washed and stained with Red-MitoTracker CMXRos (Thermo Fisher, Carlsbad, CA, USA) at a concentration of 100 nM for 30 min at 37 °C. Cells were imaged with a Leica TCS SP8 confocal system (Leica Microsystems) equipped with 4 excitation lasers (405 Diode, Argon, DPSS561, HeNe633). Images were acquired with a HCX PL APO 63×/1.4 NA oil-immersion objective with a resolution of 81 nm × 81 nm and were processed and analyzed with ImageJ software (Rasband, W.S., U.S. National Institutes of Health, Bethesda, […]). In particular, colocalization was analyzed with JACoP plugin and Manders’ coefficient was calculated"}, "hDHODH enzyme GST-tagged": {"molecular_target": "hDHODH enzyme GST-tagged (Homo sapiens, UniProt Q02127)", "sequence (Q02127 whole entry)": "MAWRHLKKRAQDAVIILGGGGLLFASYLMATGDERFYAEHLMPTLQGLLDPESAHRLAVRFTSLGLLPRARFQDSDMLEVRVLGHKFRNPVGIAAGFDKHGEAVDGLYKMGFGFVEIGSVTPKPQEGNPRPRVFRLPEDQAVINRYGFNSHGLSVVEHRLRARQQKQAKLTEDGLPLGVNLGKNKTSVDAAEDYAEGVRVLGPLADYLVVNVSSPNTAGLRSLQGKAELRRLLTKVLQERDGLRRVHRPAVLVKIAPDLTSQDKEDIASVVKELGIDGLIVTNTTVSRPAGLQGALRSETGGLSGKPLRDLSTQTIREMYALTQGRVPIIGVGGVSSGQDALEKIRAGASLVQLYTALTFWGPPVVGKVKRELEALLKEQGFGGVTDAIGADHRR", "assay": "hDHODH inhibition assay (DCIP reduction)", "procedure": "The enzyme (around 60 nM) was preincubated for 5 min at 37 °C in Tris-buffer solution (pH 8.0) with coenzyme Q10 (100 μM), tested compounds at different concentrations (final DMSO concentration 0.1% v/v), and DCIP (50 μM). The reaction was initiated by addition of DHO (500 μM) and the reduction was monitored at λ = 650 nm. […] Values are means ± SE of three independent experiments."}, "hDHODH": {"molecular_target": "hDHODH (Homo sapiens, UniProt Q02127)", "sequence (Q02127 whole entry)": "as above", "assay": "Fluorescence emission of the compound in the presence of recombinant hDHODH", "assay_type": "binding", "conditions": "compound 1 μM, hDHODH 31.5 to 504 nM, TRIS pH 8", "method": "In particular, we observed an increase in fluorescence intensity in correlation with the growing amount of protein, as shown in Figure .\nUV–Vis absorption spectra were recorded on a Cary60 spectrometer. Photoemission spectra, luminescence lifetimes, and quantum yields were acquired with a HORIBA Jobin Yvon IBH Fluorolog-TCSPC spectrofluorometer equipped with a Quanta-φ integrating sphere. […] Emission-decay data were collected in 2048 channels to 10000 counts in the peak channel. IRF was measures using colloidal silica suspension in H2O to scatter light. Data were analyzed with the software DAS6 (TCSPC decay-analysis software) using a nonlinear least-squares method to fit of the decay to a sum of exponentials. The value of χ^2, residuals and the autocorrelation function (Durbin-Watson parameter) were used to determine the quality of the fit. […] After 5 min incubation UV–Vis absorption spectra were recorded on a Cary60 spectrophotometer and photoemission spectra were acquired with a HORIBA Jobin Yvon IBH Fluorolog-TCSPC spectrofluorometer with excitation λ of 366 nm and maximum of emission at 500 nm; a.u. data were analyzed with GraphPad Prism using One Site – Specific Binding equation."}, "HCT-8 cells": {"system": "HCT-8 cells", "assay": "Confocal Red-MitoTracker co-localization", "assay_type": "cell-based, human", "conditions": "10 μM, 24 h", "method": "Co-localization experiments were performed to examine whether compound 11a may reach the cellular compartment where hDHODH is located. For this, a specific mitochondrial stain marker in the two cell lines in which the biological activities of 11a were observed, namely THP-1 and HCT-8 cells, was used. The compound was therefore incubated with THP-1 cells (Figure ) or HTC-8 cells (Figure ) at 37 °C for 24 h. Then, cells were stained with Red-MitoTracker (a specific fluorescent probe for mitochondrial targeting) for 30 min at 37 °C.\nFor fluorescence analysis, 10 μM of target compounds were incubated with THP-1 for 24 h. After washing the cells with a PBS buffer solution, they were analyzed under confocal microscopy imaging technique using the appropriate laser to excite the molecule. For the colocalization experiments, HCT-8 cells (55,000 cells/well) were plated on μ-Slide 8 well high glass bottom (IBIDI, Gräfelfing, Germany) and treated for 24 h with 10 μM of 11a at 37 °C. Then, cells were stained with MitoTracker Red CMXRos (ThermoFischer, Carlsbad, CA, USA) (1:4000) for 30′ at 37 °C and after washing with PBS buffer solution, cells were visualized with a Leica TCS SP5 multiphoton-inverted confocal microscope equipped with LAS AF matrix software. Live cells were imaged using an HCX PL APO 63×/1.4 NA oil immersion objective. […]"}, "K562 cells": {"system": "K562 cells", "assay": "Cell viability assay (CellTiter-Glo)", "assay_type": "cell-based", "conditions": "Homo sapiens, K562, 72 h; 3 days of culture; read-out: Viability EC50 K562 (C.L. 95 %)", "method": "(§1) After 3 days of culture, the percentage of live cells was determined using the CellTiter-Glo Luminescent assay (Promega, Milan, Italy), following the manufacturer’s instructions."}, "A549 cells": {"system": "A549 cells", "assay": "Cell viability assay (CellTiter-Glo)", "assay_type": "cell-based", "conditions": "Homo sapiens, A549, 72 h; 3 days of culture; read-out: Viability EC50 A549 (C.L. 95 %)", "method": "as §1"}}}
{"smiles": "Oc1nn2ccccc2c1/C=C/c1c(F)c(F)c(-c2ccccc2)c(F)c1F", "note": "[Compound 11a, (E)-3-(2-(2,3,5,6-Tetrafluoro-[1,1’-biphenyl]-4-yl)vinyl)pyrazolo[1,5-a]pyridin-2-ol]", "values": [{"measurement": "colocalization signal with the mitochondria in the presence of Bay2402234", "setting": "THP-1 cells", "result": "decreased slightly but statistically significantly"}, {"measurement": "IC50", "setting": "hDHODH enzyme GST-tagged", "result": 170, "unit": "nM"}, {"measurement": "fluorescence in the presence of the recombinant protein", "setting": "hDHODH", "result": "restoration of fluorescence"}, {"measurement": "co-localization with Red-MitoTracker", "setting": "HCT-8 cells", "result": "localize into mitochondria"}, {"measurement": "EC50", "setting": "K562 cells", "result": 114, "unit": "nM"}, {"measurement": "EC50", "setting": "A549 cells", "result": 423, "unit": "nM"}]}
